Source: PMC6270194 (Molecules, 2013)
Marks after values point to notes of the source that are not given here.

Experiments:
[1] = DPPH· free radical scavenging assay; settings: for IC50: DPPH· scavenging, 0.2 mM DPPH· in DMSO, absorbance 515 nm; for antiradical capacity lower than other series 3 analogues (fold): relative to other curcumin analogues in series 3
Experimental: DPPH^· assay is widely used to observe radical scavenging activity of various compounds and extracts. DPPH^· is stable N radical which is reduced to hydrazine during its reaction with hydrogen donors.
Initially, 0.2 mM DPPH^· solution was prepared using DMSO as the solvent. […] During reduction of DPPH^· solution by antiradical compound, absorption of DPPH^· was measured at 515 nm. The spectrophotometric data was acquired using BMG FLUOstar OPTIMA spectrophotometer (BMG Labtech, Durham, NC, USA) and the IC50 values were calculated.

[2] = Ferric reducing ability of plasma (FRAP) assay; settings: for FRAP antioxidant capacity: 10 μM compounds dissolved in DMSO, Trolox equivalence, mean ± SD
From the text: The FRAP assay uses antioxidants in a redox-linked colorimetric assay to reduce ferric tripyridyl triazine to ferrous form at low pH [20].
FRAP assay is based on ferric to ferrous ion reduction to test the electron donating capacity of antioxidants. The assay was modified by using the 96-well microplate reader with an injection port system. Briefly, the FRAP working reagent was made using acetate buffer, 2,4,6-Tris (2-pyridyl)-s-triazine solution and ferric chloride in the ratio 10:1:1. […] After 6 min reaction time, absorbance was measured at 593 nm. Trolox standards at different concentrations were used to calculate the antioxidant capacity as mmol Trolox equivalence per L.

[3] = Oxygen radical absorbance capacity (ORAC) assay; settings: for ORAC antioxidant capacity: 1 μM compounds dissolved in DMSO, Trolox equivalence, mean ± SD
Experimental: ORAC assay is based on the free radical damage to a fluorescence probe measured by fluorescence intensity over the time. The fluorescein sodium salt was used as fluorescence probe and change in its intensity was estimated as the index of the degree of free radical damage. Assay was performed using method described elsewhere. Briefly, the standards and samples were prepared using 75 mM phosphate buffer (pH 7). As the peroxy radicals are generated from decomposition of 2,2'-azobis(2-amidino-propane) dihydrochloride (AAPH), the signal was quenched from fluorescein. However, in the presence of antioxidant samples the fluorescence signal can be stabilize which depends directly upon the antioxidant’s capacity to neutralize the free radical. Quadratic relation emerging from florescent area under the decaying curve was used to calculate antioxidant capacity as mmol Trolox equivalence per L.

[4] = tested on: angiotensin converting enzyme (ACE); test: Angiotensin converting enzyme (ACE) inhibition assay; type: biochemical; settings: 10 μM compounds dissolved in DMSO
Experimental: ACE assay is based on ACE inhibitory activity of test samples. The enzyme activity was measured by production of hippuric acid from the substrate hippuryl-L-histidyl-L-leucine (HHL). ACE cleaves the substrate to expose a free N-terminus, which was fluorogenically labeled with o-phthaldialdehyde (OPA). The florescence signal was measured by using excitation of 350 nm and emission of 500 nm. ACE inhibition activity of samples was measured using the following equation: % inhibition = 100 − (Acontrol − Asample)/Acontrol × 100 (1) where A is the absorbance Equation (1).

[5] = target: T1, HIV-1 protease (Human immunodeficiency virus type 1 group M subtype B, UniProt P04585); test: HIV-1 protease inhibition assay (fluorescent substrate); type: biochemical; settings: 10 μM compounds dissolved in DMSO; for inhibition at 10 µM: read-out: % Enzyme Inhibition HIV-I protease
T1 construct: HIV-1 protease enzyme (Sigma Aldrich); purchased Sigma Aldrich
Experimental: HIV-1 protease inhibition was performed by using a previously described method. HIV protease fluorescent substrate and HIV-1 protease enzyme (Sigma Aldrich) were used to determine HIV inhibition capacity of sample. Three primary controls i.e., blank, sample and positive control were used. Reaction mixture of 200 µL comprised of five enzyme units (5U) of HIV-1 protease along with 0.5 pmol of enzyme substrate. After addition of both enzymes and substrates, test compounds were added in different concentrations. Reaction mixture was incubated at 37 °C which leads to generation of fluorescence signal by cleaving Tyr-Pro peptide bond of the substrate. Finally reaction mixture was heated for 5 minutes at 90 °C to stop the reaction. The mixture was centrifuged at 12,000 rpm for 3 min. and supernatant was used to measure the fluorescence signal. The enzyme inhibition was calculated using the Equation (1).

[6] = tested on: Tyrosinase; test: Tyrosinase inhibition assay (L-DOPA substrate); type: biochemical; settings: 10 μM compounds dissolved in DMSO
Experimental: Tyrosinase inhibition was calculated based on previously described methods using L-DOPA as the substrate. Tyrosinase inhibition depended upon the amount of dopachrome produced in the reaction mixture. Absorption was measured at 490 nm to calculate the amount of dopachrome produced. The assay was performed in 96-well clear polystyrene plates using FLUOstar OPTIMA plate reader. The tyrosinase inhibitory effect of sample was measured using the following the Equation (1).

[7] = DPPH assay, relative to curcumin

For “(E)-2-(3,4-dimethoxybenzylidene)-5-((E)-3-(3,4-dimethoxyphenyl)acryloyl)cyclopentanone [Compound 3e]”, which “radical scavenging capacity higher than curcumin (fold)” value [1, 7] is on record?
The value was “over 10 fold”.

And the IC50 [1]?
The IC50 was 30 µM.

What about the FRAP antioxidant capacity [2] of the same compound?
The FRAP antioxidant capacity was 0.67 ± 0.02 ^j mmole TE/L.

What about the ORAC antioxidant capacity [3] of the same compound?
Its ORAC antioxidant capacity is 0.69 ± 0.1 ^e mmole TE/L.

And the “% Enzyme Inhibition ACE” value [4]?
Its value is 56.95 ^de %.

And the “% Enzyme Inhibition HIV-I protease” value [5]?
The value was 44.5 ^cd %.

What does the source list for “(E)-2-(3,4-dimethoxybenzylidene)-6-((E)-3-(3,4-dimethoxyphenyl)acryloyl)cyclohexanone [Compound 2e]”?
IC50 [1]: 2570 µM; FRAP antioxidant capacity [2]: 0.47 ± 0.1 ^k mmole TE/L; FRAP value ([2]; 10 µM concentration): 0.47 mM TE/L; ORAC antioxidant capacity [3]: 0.60 ± 0.1^e mmole TE/L; % Enzyme Inhibition ACE [4]: 36.56 ^f %; % Enzyme Inhibition HIV-I protease [5]: 61.6 ^a %

For “(E)-2-(4-hydroxy-3-methoxybenzylidene)-5-((E)-3-(4-hydroxy-3-methoxyphenyl)acryloyl)-cyclopentanone [Compound 3d]”, which “radical scavenging capacity higher than curcumin (fold)” value [1, 7] is on record?
Its value is “over 10 fold”.

And the IC50 [1]?
Its IC50 is 70 µM.

What about the FRAP antioxidant capacity [2] of the same compound?
The FRAP antioxidant capacity was 6.70 ± 0.32 ^a mmole TE/L.

What about the ORAC antioxidant capacity [3] of the same compound?
Its ORAC antioxidant capacity is 0.75 ± 0.05 ^d mmole TE/L.

And the “% Enzyme Inhibition ACE” value [4]?
Its value is 93.89 ^a %.

What about the “% Enzyme Inhibition Tyrosinase” value [6] of the same compound?
The value was 79.99 ^b %.

And the “% Enzyme Inhibition HIV-I protease” value [5]?
Its value is 41.8 ^de %.

Which IC50 [1] does the source give for O=C1/C(=C(O)/C=C/c2ccccc2)CCC/C1=C\c1ccccc1 [Compound 2a] here?
Its IC50 is 2860 µM.

What about the FRAP antioxidant capacity [2] of the same compound?
Its FRAP antioxidant capacity is 1.13 ± 0.4 ^g mmole TE/L.

What about the ORAC antioxidant capacity [3] of the same compound?
Its ORAC antioxidant capacity is 0.12 ± 0.01 ^g mmole TE/L.

And the “% Enzyme Inhibition ACE” value [4]?
The value was 19.69 ^g %.

And the “% Enzyme Inhibition Tyrosinase” value [6]?
The value was 46.1 ^i %.

And the inhibition at 10 µM [5]?
Its inhibition at 10 µM is 48.2%.

With “(E)-2-(4-hydroxybenzylidene)-6-((E)-3-(4-hydroxyphenyl)acryloyl)cyclohexanone [Compound 2b]” as the compound, how does the IC50 [1] read?
Its IC50 is 2580 µM.

And the FRAP antioxidant capacity [2]?
Its FRAP antioxidant capacity is 3.02 ± 0.02 ^d mmole TE/L.

And the ORAC antioxidant capacity [3]?
The ORAC antioxidant capacity was 0.43 ± 0.1 ^f mmole TE/L.

And the “% Enzyme Inhibition ACE” value [4]?
The value was 88.73 ^ab %.

What about the “% Enzyme Inhibition HIV-I protease” value [5] of the same compound?
The value was 55.5 ^b %.

With COc1ccc(/C=C/C(O)=C2\CCC/C(=C\c3ccc(OC)cc3)C2=O)cc1 [Compound 2c] as the compound, how does the “DPPH· scavenging capacity weaker than curcumin (fold)” value [1, 7] read?
The value was ~ 5 fold.

What about the IC50 [1] of the same compound?
The IC50 was 4070 µM.

What about the FRAP antioxidant capacity [2] of the same compound?
Its FRAP antioxidant capacity is 1.32 ± 0.001 ^f mmole TE/L.

And the ORAC antioxidant capacity [3]?
The ORAC antioxidant capacity was 0.11 ± 0.01 ^g mmole TE/L.

What about the “% Enzyme Inhibition ACE” value [4] of the same compound?
The value was 4.01 ^g %.

What about the “% Enzyme Inhibition Tyrosinase” value [6] of the same compound?
Its value is 40.63 ^j %.

What about the inhibition at 10 µM [5] of the same compound?
Its inhibition at 10 µM is 43.7%.

With Cc1ccc(/C=C/C(O)=C2\CC/C(=C\c3ccc(C)cc3)C2=O)cc1 [Compound 3g] as the compound, how does the “antiradical capacity lower than other series 3 analogues (fold)” value ([1]; DPPH assay) read?
The value was “approximately 10 fold”.

What about the IC50 [1] of the same compound?
The IC50 was 510 µM.

What about the FRAP antioxidant capacity [2] of the same compound?
Its FRAP antioxidant capacity is 0.95 ± 0.02 ^hi mmole TE/L.

And the ORAC antioxidant capacity [3]?
Its ORAC antioxidant capacity is 1.25 ± 0.04 ^bc mmole TE/L.

What about the “% Enzyme Inhibition ACE” value [4] of the same compound?
The value was 46.19 ^ef %.

What about the “% Enzyme Inhibition Tyrosinase” value [6] of the same compound?
The value was 67.18 ^d %.

And the inhibition at 10 µM [5]?
Its inhibition at 10 µM is 22.7%.

Which results are given for O=C1/C(=C(O)/C=C/c2ccc([N+](=O)[O-])cc2)CC/C1=C\c1ccc([N+](=O)[O-])cc1 [Compound 3h]?
antiradical capacity lower than other series 3 analogues (fold) ([1]; DPPH assay): approximately 10 fold; IC50 [1]: 360 µM; FRAP antioxidant capacity [2]: 1.05 ± 0.01 ^ghi mmole TE/L; ORAC antioxidant capacity [3]: 0.84 ± 0.1 ^d mmole TE/L; % Enzyme Inhibition ACE [4]: 88.01 ^ab %; % Enzyme Inhibition Tyrosinase [6]: 59.22 ^fg %; inhibition at 10 µM [5]: 44.8%

Which “radical scavenging capacity higher than curcumin (fold)” value [1, 7] does the source give for O=C1/C(=C(O)/C=C/c2ccc(O)cc2)CC/C1=C\c1ccc(O)cc1 [Compound 3b] here?
Its value is “over 10 fold”.

What about the IC50 [1] of the same compound?
The IC50 was 60 µM.

What about the FRAP antioxidant capacity [2] of the same compound?
Its FRAP antioxidant capacity is 2.29 ± 0.1 ^e mmole TE/L.

What about the ORAC antioxidant capacity [3] of the same compound?
Its ORAC antioxidant capacity is 0.49 ± 0.1 ^ef mmole TE/L.

And the “% Enzyme Inhibition ACE” value [4]?
The value was 90.55 ^ab %.

What about the inhibition at 10 µM [5] of the same compound?
The inhibition at 10 µM was 41.1%.

What does the source list for “(1E,6E)-1,7-bis(4-hydroxy-3-methoxyphenyl)-1,6-heptadiene-3,5-dione [Curcumin, reference compound]”?
IC50 [1]: 860 µM; FRAP antioxidant capacity [2]: 5.01 ± 0.1 ^c mmole TE/L; ORAC value, peroxyl radical scavenging capacity [3]: 5.01 mM TE/L; ORAC antioxidant capacity [3]: 1.89 ± 0.2 ^a mmole TE/L; % Enzyme Inhibition ACE [4]: 76.86 ^bc %; % Enzyme Inhibition Tyrosinase [6]: 12.61 ^k %
